Results taken from patent publication US20260130933A1, “PHARMACEUTICAL COMPOSITION FOR PREVENTION OR TREATMENT OF NEPHROPATHY AND/OR DIABETES MELLITUS, COMPRISING ENAVOGLIFLOZIN” (DAEWOONG PHARMACEUTICAL CO., LTD., priority 2022, published 2026).

Columns and labels:
[1] = Example 6: phase 1 trial, 0.5 mg enavogliflozin in type 2 diabetes patients grouped by eGFR: urinary glucose excretion (UGE) and eGFR; assay type: in vivo, human
Experimental: The subjects were divided into the following four groups according to eGFR values, and urinary glucose excretion (UGE) and eGFR were estimated according to the administration of 0.5 mg of enavogliflozin as the test drug (stages 1 and 3: repeated administration (1 week), stages 2 and 4: single administration).

[2] = Example 7: SD rats treated with streptozotocin (diabetic nephropathy model), oral once a day for 12 weeks: urinary albumin, GS score, TA score; assay type: in vivo
Experimental: Accordingly, 60 mg/kg of streptozotocin was administered intravenously to the SD rats and used as an animal model of diabetic nephropathy.

[3] = Dissolution test method 2 of the Korean Pharmacopoeia (paddle method); assay type: physicochemical; conditions: average particle size greater than 15 μm
Experimental: The dissolution rate of the active ingredient in the pharmaceutical composition affects the maximum blood concentration (Cmax) and the blood concentration-area under the blood concentration-time curve (AUC) when administering the drug, that is to say, in order to achieve appropriate Cmax and AUC, it is important to adjust the dissolution rate of the pharmaceutical composition. […] The above dissolution rate was measured under the condition of the dissolved solution 1.2 in accordance of the dissolution test method 2 of the Korean Pharmacopoeia (paddle method). For specific conditions, refer to the following experimental examples.

Change in eGFR ([1]; patient group with 30≤eGFR<60): eGFR reduction was confirmed
5-minute dissolution rate [3]: less than 40%
30-minute dissolution rate [3]: less than 80%
Compound: OC[C@H]1O[C@@H](c2cc(Cc3ccc(C4CC4)cc3)c(Cl)c3c2CCO3)[C@H](O)[C@@H](O)[C@@H]1O [Enavogliflozin, (2S,3R,4R,5S,6R)-2-(7-chloro-6 (4-cyclopropylbenzyl)-2,3-dihydrobenzofuran-4-yl)-6-(hydroxymethyl)tetrahydro-2H-pyran-3,4,5-triol]
Urinary glucose excretion (UGE) after administration ([1]; all renal function groups): increased
Reduction of proteinuria compared with other SGLT2 inhibitors ([2]; same dose groups (1 mg/kg)): most excellent effect in reducing proteinuria
TA score (tubular atrophy) ([2]; week 12): significant dose-dependent decrease in tubular atrophy
GS score (glomerulosclerosis) ([2]; week 12, all enavogliflozin-administered groups): trend toward a decrease in the GS score
Urinary albumin concentration (proteinuria) ([2]; weeks 4, 8 and 12): dose-dependent decrease in proteinuria
